Source: patent US8796267B2, “Oxazolidinone derivatives and methods of use” (Concert Pharmaceuticals, Inc., priority 2006, dated 2014)
In brackets after ≈: the same amount, converted by molar mass. Where two headings read alike, the source gives them in different places.

Key:
[1] = tested on: mtDNA-encoded protein synthesis in HepG2 cells; assay: Mitochondria Toxicity Study (Complex IV/Frataxin ratio, dipstick); details: for IC50: Homo sapiens, HepG2; for mitochondria toxicity: in words, versus linezolid
H. influenzae = assay: MIC assay (broth microdilution); assay type: cell-based, Haemophilus influenzae; details: in words
Method: (§1) The three test compounds were stored at 4° C. until tested.
(§2) All test articles and drugs were dissolved in 50% dimethyl sulfoxide (DMSO) at one-half the volume needed to prepare the stock solution. Once the compound was in solution, the rest of the volume was added as sterile deionized water. The drug solutions were allowed to stand at room temperature for 1 hr to allow for auto-sterilization. Stock solutions were prepared at 40-fold the highest final test concentration in the test plate. The final concentration of DMSO in the assay was 2.5%.
(§3) The test organisms were obtained from clinical laboratories; quality control cultures were from the American Type Culture Collection. The test groups included Staphylococcus aureus, Staphylococcus epidermidis, Enterococcus faecalis, Enterococcus faecium, Streptococcus pneumoniae, Streptococcus pyogenes, Streptococcus agalactiae, Haemophilus influenzae, and Moraxella catarrhalis. Various phenotypic susceptibility/resistance groups were represented. Organisms received were streaked for isolation on agar medium appropriate to each organism. Colonies were picked by swab from the isolation plates and put into suspension in the appropriate media containing a cryoprotectant. The suspensions were aliquoted into cryogenic vials and maintained at −80° C. The isolates were thawed and passaged on the appropriate agar medium: Trypticase Soy agar (TSA) for most organisms, TSA plus 5% sheep blood for streptococci, and chocolate agar for Haemophilus. The plates were incubated overnight at 35° C. Haemophilus plates were incubated in the presence of CO2.
The medium employed for the MIC assay was Mueller Hinton II Broth (MHB II-Becton Dickinson, Sparks, Md. #212322, Lot #7143673) for most of the organisms. MHB II was supplemented with 2% lysed horse blood (Cleveland Scientific Lot #H93152) to accommodate the growth of Streptococcus pneumoniae. Haemophilus influenzae was tested in Haemophilus Test Medium. […]

community-acquired MRSA = assay: MIC assay (broth microdilution); assay type: cell-based; details: Staphylococcus aureus, clinical isolates
Method: as §1, §2, §3
(§4) The medium employed for the MIC assay was Mueller Hinton II Broth (MHB II-Becton Dickinson, Sparks, Md. #212322, Lot #7143673) for most of the organisms. MHB II was supplemented with 2% lysed horse blood (Cleveland Scientific Lot #H93152) to accommodate the growth of Streptococcus pneumoniae. Haemophilus influenzae was tested in Haemophilus Test Medium. On the day of the test, the medium to be used in the daptomycin row of the daughters was supplemented with calcium ions to the final concentration of 50 μg/mL, taking into account the calcium that was already present in the medium.
(§5) The MIC assay method followed the procedure described by the Clinical and Laboratory Standards Institute and employed automated liquid handlers to conduct serial dilutions and liquid transfers. Automated liquid handlers included the Multidrop 384, Labsystems, Helsinki, Finland; Biomek 2000 and Multimek 96, Beckman Coulter, Fullerton Calif. The wells of standard 96-well microdilution plates (Falcon 3918) were filled with 150 μL of DMSO:deionized H2O (1:1) on the Multidrop 384. The drugs were dispensed into Column 1 of a deep well plate. The Biomek 2000 transferred 150 μL of each drug into one well in Column 1 of a “mother plate” and completed serial transfers through Column 11 in the mother plates. The wells of Column 12 contained no drug and were the organism growth control wells.
(§6) The daughter plates were loaded with 85 μL of the appropriate test media described above using the Multidrop 384. The daughter plates were prepared on the Multimek 96 instrument which transferred 5 μL of drug solution from each well of a mother plate to each corresponding well of each daughter plate in a single step.
(§7) Standardized inoculum of each organism was prepared per CLSI methods (Clinical and Laboratory Standards Institute. Methods for Dilution Antimicrobial Susceptibility Tests for Bacteria That Grow Aerobically; Approved Standard—Seventh Edition. Clinical and Laboratory Standards Institute document M7-A7 [ISBN 1-56238-587-9]. Clinical and Laboratory Standards Institute, 940 West Valley Road, Suite 1400, Wayne, Pa. 19087-1898 USA, 2006). Suspensions were prepared in MHB to equal a 0.5 McFarland standard. The suspensions were diluted 1:19 in broth appropriate to the organism. […]

[2] = tested on: penicillin-sensitive S. pneumoniae; assay: MIC assay (broth microdilution); assay type: cell-based; details: Streptococcus pneumoniae; 27 isolates
Method: as §1, §2, §3, §4, §5, §6, §7

S. agalactiae = assay: MIC assay (broth microdilution); assay type: cell-based; details: Streptococcus agalactiae
Method: as §1, §2, §3, §4, §5, §6, §7

[3] = tested on: penicillin-resistant S. pneumoniae; assay: MIC assay (broth microdilution); assay type: cell-based; details: Streptococcus pneumoniae; 28 isolates
Method: as §1, §2, §3, §4, §5, §6, §7

[4] = tested on: vancomycin-sensitive E. faecium; assay: MIC assay (broth microdilution); assay type: cell-based; details: Enterococcus faecium; printed only as 'a value'
Method: as §1, §2, §3, §4, §5, §6, §7

[5] = tested on: vancomycin-sensitive E. faecalis; assay: MIC assay (broth microdilution); assay type: cell-based; details: Enterococcus faecalis; clinical isolates
Method: as §1, §2, §3, §4, §5, §6, §7

[6] = tested on: penicillin-intermediate S. pneumoniae; assay: MIC assay (broth microdilution); assay type: cell-based; details: Streptococcus pneumoniae; 27 isolates
Method: as §1, §2, §3, §4, §5, §6, §7

[7] = tested on: methicillin-sensitive S. epidermidis (MSSE); assay: MIC assay (broth microdilution); assay type: cell-based; details: Staphylococcus epidermidis; clinical isolates
Method: as §1, §2, §3, §4, §5, §6, §7

[8] = tested on: methicillinsensitive S. aureus (MSSA); assay: MIC assay (broth microdilution); assay type: cell-based; details: Staphylococcus aureus, clinical isolates
Method: as §1, §2, §3, §4, §5, §6, §7

[9] = tested on: methicillin-resistant S. epidermidis (MRSE); assay: MIC assay (broth microdilution); assay type: cell-based; details: Staphylococcus epidermidis, clinical isolates
Method: as §1, §2, §3, §4, §5, §6, §7

M. catarrhalis = assay: MIC assay (broth microdilution); assay type: cell-based; details: Moraxella catarrhalis; 30 isolates
Method: as §1, §2, §3, §4, §5, §6, §7

[10] = tested on: vancomycin-resistant E. faecium; assay: MIC assay (broth microdilution); assay type: cell-based; details: Enterococcus faecium; clinical isolates
Method: as §1, §2, §3, §4, §5, §6, §7

S. pyogenes = assay: MIC assay (broth microdilution); assay type: cell-based; details: Streptococcus pyogenes; read-out: potency (MIC90)
Method: as §1, §2, §3, §4, §5, §6, §7

[11] = tested on: vancomycin-resistant E. faecalis; assay: MIC assay (broth microdilution); assay type: cell-based; details: Enterococcus faecalis; clinical isolates
Method: as §1, §2, §3, §4, §5, §6, §7

[12] = tested on: methicillin-resistant S. aureus (MRSA); assay: MIC assay (broth microdilution); assay type: cell-based; details: Staphylococcus aureus, clinical isolates
Method: as §1, §2, §3, §4, §5, §6, §7

[13] = tested on: Vancomycin-Resistant Enterococcus faecium; Staphylococcus aureus; Streptococcus pneumoniae; Streptococcus pyogenes; Streptococcus agalactiae infections; details: clinical trials, in words; cited from earlier work
[14] = tested on: Cyp isoforms (1A2; 2C9; 2C19; 2D6; 2E1; 3A4); details: cited from earlier work
in vivo [15] = details: male, Sprague Dawley, rat, po, 5 mg/kg
Method: The combo dose was prepared by mixing both by 1:1 to yield a concentration of 5 mg/mL for each compound (pH ˜6) for intravenous and oral administration. The obtained solution was clear and colourless.
Male Sprague Dawley rats (body weight: 170 g to 220 g) were used in this study. Before the pharmacokinetic studies, animals were randomly assigned to the treatment groups.
The plasma samples and the dose formulation were stored at −20° C. until bioanalysis. Sample Analysis
Plasma samples (0.1 mL) were transferred to Eppendorff tube, then 20 μL methanol, and 300 μL IS solution (50 ng/mL) were added to it. After Vortexing for 1 min and centrifuging for 5 min at 15,000 rpm, 5 μL of supernatant was injected into LC/MS/MS.
The concentrations in plasma below the limit of quantitation (LOQ=5 ng/mL) were designated as zero. The pharmacokinetic data analysis was performed using noncompartmental analysis modules in WinNonlin2.0.

[16] = humans; cited from earlier work
[17] = cited from earlier work
in vivo [18] = details: 150 mg; for AUC(0-t): both, chimpanzee, po; for half-life: iv
Method: The dosing solution is then filtered through a 0.22 μm filter prior to dosing.
(§8) Four chimpanzees (two male and two female) were used in the study. One male and one female were used for the intravenous study and one male and one female were used for the oral dosing study. All animals were fasted overnight prior to dosing. For all studies animals were sedated with ketamine (approx. 10 mg/ml) or telazol (approx. 5 mg/ml) prior to dosing. […] Intravenous doses were administered (150 ml at 2 mg/ml combined drugs) by infusion over a 30 minute period. Oral doses were administered in a volume of 150 ml at 2 mg/ml combined drugs.
(§9) For the intravenous study, a 4.5 ml aliquot of blood was taken from each animal prior to the start of infusion, 15 minutes after the start of infusion, and immediately before the end of infusion. Additional samples were taken at 6, 15, 30, and 60 minutes and 1.5, 2, 4, 6, 8 and 24 hours following infusion. For the oral study, 4.5 ml aliquots of blood were taken from each animal prior to doing and then at 15, 20 and 60 minutes and 1.5, 2, 4, 6, 8 and 24 hours post dosing. All blood samples were collected into vacutainer tubes containing sodium heparin as an anticoagulant, sufficiently mixed and stored on wet ice. The samples were centrifuged within 1 hour of collection and the plasma collected and frozen at −70° C. until analysis. Urine was also collected from each animal over a 24 hour period following dosing.
Chimp plasma sample (100 μL) was mixed with 300 μL internal standard solution prior to LC-MS/MS analysis. The internal standard was 250 ng/mL haloperidol in acetonitrile/water (90/10, v/v). After protein precipitation, 10 L supernatant was injected to a Zorbax SB-C8 (Rapid Resolution) column (2.1×30 mm, 3.5 μm). The initial mobile phase condition was 100% A (water with 0.1% formic acid) and 0% B (acetonitrile with 0.1% formic acid) with a flow rate at 0.5 mL/min. Mobile phase B was allowed to reach 90% within 2 minutes and held for 1 minute before ramping back 0% at 3.2 minutes. The overall run time was six minutes.

[19] = tested on: antibiotic resistant Grampositive pathogens including MRSA, VRE, and PRSP; assay: In vitro antibacterial activity, overall conclusion; assay type: cell-based; details: in words
Method: as §1, §2
as §3, with “The isolates were thawed and passaged on the appropriate agar medium: Trypticase Soy agar (TSA) for most organisms, TSA plus 5% sheep blood for streptococci, and chocolate agar for Haemophilus. The plates were incubated overnight at 35° C. Haemophilus plates were incubated in the presence of CO2.” left out

[20] = in words
Method: as §8, §9
Urine samples were similarly analyzed. […]

[21] = in words; cited from earlier work

Row | SMILES | IC50 [1] | mitochondria toxicity [1] | activity (H. influenzae) | MIC90 (community-acquired MRSA) | MIC90 [2] | MIC90 (S. agalactiae) | MIC90 [3] | MIC90 [4] | MIC90 [5] | MIC90 [6] | MIC90 [7] | MIC90 [8] | MIC90 [9] | MIC90 (M. catarrhalis) | MIC90 [10] | MIC90 (S. pyogenes) | MIC90 [11] | MIC90 [12] | AUC(0-t) (in vivo [18]) | half-life (in vivo [18]; female) | further results
1 | [2H]C1([2H])CN(c2ccc(N3C[C@H](CNC(C)=O)OC3=O)cc2F)CC([2H])([2H])O1 [Compound 103, (S)—N-((3-(3-fluoro-4-(4-morpholino-2,2,6,6-d4)-phenyl)-2-oxooxazolidin-5-yl)methyl)acetamide] | 9.7 µM | comparable to that of linezolid | – | – | – | – | – | – | – | – | – | – | – | – | – | – | – | – | – | – | –
2 | CC(=O)NC[C@H]1CN(c2ccc(N3CCOCC3)c(F)c2)C(=O)O1 [Linezolid, (S)—N-[[3-[3-Fluoro-4-(4-morpholinyl)phenyl]-2-oxo-5-oxazolidinyl]methyl]-acetamide, reference compound] | 7.8 µM | – | poor activity | 2 µg/mL (≈ 5.93 µM) | 2 µg/mL (≈ 5.93 µM) | 2 µg/mL (≈ 5.93 µM) | 2 µg/mL (≈ 5.93 µM) | 2 µg/mL (≈ 5.93 µM) | 2 µg/mL (≈ 5.93 µM) | 2 µg/mL (≈ 5.93 µM) | 2 µg/mL (≈ 5.93 µM) | 4 µg/mL (≈ 11.9 µM) | 2 µg/mL (≈ 5.93 µM) | 8 µg/mL (≈ 23.7 µM) | 2 µg/mL (≈ 5.93 µM) | 1 µg/mL (≈ 2.96 µM) | 2 µg/mL (≈ 5.93 µM) | 4 µg/mL (≈ 11.9 µM) | 11300 ng·h/mL | 4.5 h | efficacy in treatment of infections [13]: effective; Cyp substrate, inhibitor or inducer [14]: not a substrate, inhibitor, or inducer; Tmax (in vivo [15]): 0.83 ± 1.01 h; administered dose found in the urine as the parent compound [16]: Approximately 35%; dose accounted for as the two metabolites (M4, M6) [16]: 50%; tolerability ([17]; 725 mg three times a day, increase in serum creatinine): could not be tolerated; myelosuppression ([17]; patients receiving linezolid, reversible): Myelosuppression has been reported; half-life (in vivo [18]; male): 4.5 h
3 | [2H]C([2H])(NC(C)=O)[C@H]1CN(c2ccc(N3C([2H])([2H])C([2H])([2H])OC([2H])([2H])C3([2H])[2H])c(F)c2)C(=O)O1 [Compound 100] | 9.3 µM | comparable to that of linezolid | poor activity | 2 µg/mL (≈ 5.76 µM) | – | – | – | – | – | – | – | 4 µg/mL (≈ 11.5 µM) | – | – | – | 1 µg/mL (≈ 2.88 µM) | – | – | 16400 ng·h/mL | 6.4 h | rate of metabolism versus linezolid (chimpanzee studies, in words): more slowly metabolized than linezolid; activity against antibiotic resistant Grampositive pathogens [19]: good activity; half-life (in vivo [18]; male): 6.2 h; amount of deuterated M6 metabolite versus linezolid M6 metabolite ([20]; chimpanzee urine): essentially the same; amount excreted intact in the urine versus linezolid ([20]; chimpanzee, regardless of route or sex): approximately twice as much
4 | CC(=O)NCC1CN(c2ccc(NCCOCC(=O)O)c(F)c2)C(=O)O1 (stereo not shown) [Compound M6] | – | – | – | – | – | – | – | – | – | – | – | – | – | – | – | – | – | – | – | – | activity of metabolite [21]: inactive
5 | [2H]C1([2H])OC([2H])([2H])C([2H])([2H])N(c2ccc(N3C[C@H](CNC(C)=O)OC3=O)cc2F)C1([2H])[2H] [Compound 101] | 10.5 µM | comparable to that of linezolid | poor activity | 2 µg/mL (≈ 5.79 µM) | 2 µg/mL (≈ 5.79 µM) | 2 µg/mL (≈ 5.79 µM) | 2 µg/mL (≈ 5.79 µM) | 2 µg/mL (≈ 5.79 µM) | 2 µg/mL (≈ 5.79 µM) | 2 µg/mL (≈ 5.79 µM) | 2 µg/mL (≈ 5.79 µM) | 4 µg/mL (≈ 11.6 µM) | 2 µg/mL (≈ 5.79 µM) | 4 µg/mL (≈ 11.6 µM) | 2 µg/mL (≈ 5.79 µM) | 1 µg/mL (≈ 2.9 µM) | 2 µg/mL (≈ 5.79 µM) | 4 µg/mL (≈ 11.6 µM) | – | – | % increase in AUC (both, chimpanzee, in vivo, iv): 31%; % increase in Half-life (both, chimpanzee, in vivo, iv): 30%; % increase in AUC (both, chimpanzee, in vivo, po): 41%; % increase in Cmax (both, chimpanzee, in vivo, po): 22%; activity against antibiotic resistant Grampositive pathogens [19]: good activity
6 | CC(=O)NCC1CN(c2ccc(N(CCO)CC(=O)O)c(F)c2)C(=O)O1 (stereo not shown) [Compound M4] | – | – | – | – | – | – | – | – | – | – | – | – | – | – | – | – | – | – | – | – | activity of metabolite [21]: inactive
